Entries after “also recorded” stand apart in the source; their conditions may differ.
What was measured:
Format in all cases: physicochemical
[1] = Solid-form stability on heating, resulting form by XRPD analysis
Protocol: (§1) X-ray powder diffraction (XRPD) analyses were performed using the following instruments & methods:
(§2) A. Shimadzu XRD-6000 X-ray powder diffractometer using Cu Kα radiation. The instrument was equipped with a long fine focus X-ray tube. The tube voltage and amperage were set to 40 kV and 40 mA, respectively. The divergence and scattering slits were set at 1° and the receiving slit was set at 0.15 mm. Diffracted radiation was detected by a NaI scintillation detector. A θ-2θ continuous scan at 3°/min (0.4 sec/0.02° step) from 2.5 to 40° 2θ was used. A silicon standard was analyzed to check the instrument alignment. Data were collected and analyzed using XRD-6000 v. 4.1. Samples were prepared for analysis by placing them in a sample holder.
(§3) B. Inel XRG-3000 diffractometer, equipped with a CPS (Curved Position Sensitive) detector with a 2 Orange of 120°. Real time data were collected using Cu—Kα radiation starting at approximately 4° 2θ at a resolution of 0.03° 2θ. The tube voltage and amperage were set to 40 kV and 30 mA, respectively. The monochromator slit was set at 5 mm by 80 μm or 160 μm. […] Samples were prepared for analysis by packing them into thin-walled glass capillaries. Each capillary was mounted onto a goniometer head that is motorized to permit spinning of the capillary during data acquisition. The acquisition time was between 5 to 10 min. Instrument calibration was performed using a silicon reference standard.
C. Shimadzu XRD-6000 X-ray powder diffractometer equipped with an Anton Paar HTK 1200 high temperature stage (Variable-temperature XRPD (VT-XRPD)). The sample was packed in a ceramic holder and analyzed form 2.5 to 40° 2θ at 3°/min (0.4 sec/0.02° step). The heating rate was 10° C./min. A silicon standard was analyzed to check the instrument alignment. Temperature calibration was performed using vanillin and sulfapyridine USP melting point standards. Data were collected and analyzed using XPD-6000 v.4.1. The system was kept under a purge of nitrogen during the analysis.
(§4) D. Bruker D-8 Discover diffractometer and Bruker's General Area Diffraction Detection System (GADDS, v. 4.1.20). An incident beam of Cu—Kα radiation was produced using a fine-focus tube (40 kV, 40 mA), a Gobel mirror, and a 0.5 mm double-pinhole collimator. The samples were positioned for analysis by securing the well plate to a translation stage and moving each sample to intersect the incident beam. Alternatively, the sample was packed between 3-micron thick films to form a portable disc-shaped specimen, and the specimen was loaded in a holder secured to a translation stage. The samples were analyzed using a transmission geometry. The incident beam was scanned and rastered over the sample during the analysis to optimize orientation statistics. A beam-stop was used to minimize air scatter from the incident beam at low angles. Diffraction patterns were collected using a Hi-Star area detector located 15 cm from the sample and processed using GADDS. The intensity in the GADDS image of the diffraction pattern was integrated using a step size of 0.04° 2θ. The integrated patterns display diffraction intensity as a function of 2θ. Prior to the analysis a silicon standard was analyzed to verify the Si 111 peak position.
E. Peak Picking Methods. Any XRPD files generated from Inel or Bruker XRPD instruments were converted to Shimadzu .raw file using File Monkey version 3.0.4. The Shimadzu .raw file was processed by the Shimadzu XRD-6000 version 4.1 software to automatically find peak positions. The “peak position” means the maximum intensity of a peaked intensity profile. The following processes were used with the Shimadzu XRD-6000 “Basic Process” version 2.6 algorithm: • Smoothing was done on all patterns. • The background was subtracted to find the net, relative intensity of the peaks. • A peak from Cu K alpha2 (1.5444 Å) wavelength was subtracted from the peak generated by Cu K alpha1 (1.5406 Å) peak at 50% intensity for all patterns. […]

[2] = Solid-form stability on storage, resulting form by XRPD analysis; conditions: for Form converted to during storage: during storage (summary statement, conditions not given); for Form converted to during storage / Form indicated by XRPD analysis after storage: hydrochloride
Protocol: as §1, §2, §3, §4
(§5) E. Peak Picking Methods. Any XRPD files generated from Inel or Bruker XRPD instruments were converted to Shimadzu .raw file using File Monkey version 3.0.4. The Shimadzu .raw file was processed by the Shimadzu XRD-6000 version 4.1 software to automatically find peak positions. The “peak position” means the maximum intensity of a peaked intensity profile. The following processes were used with the Shimadzu XRD-6000 “Basic Process” version 2.6 algorithm: • Smoothing was done on all patterns. • The background was subtracted to find the net, relative intensity of the peaks. • A peak from Cu K alpha2 (1.5444 Å) wavelength was subtracted from the peak generated by Cu K alpha1 (1.5406 Å) peak at 50% intensity for all patterns. Differential Scanning Calorimetry

[3] = Solid-form stability on drying under vacuum, resulting form by XRPD analysis
Protocol: as §1, §2, §3, §4, §5

[4] = stored two months, ambient temperature and humidity
[5] = dried under vacuum at room temperature for less than one day, hydrochloride
[6] = under vacuum at room temperature for about four (4) days, hydrochloride
[7] = stored five (5) days, 2-8° C., about 96% relative humidity
[8] = dried about 14 hours under vacuum at about 65° C., hydrochloride
[9] = stored five (5) days, about 40° C., about 89% relative humidity
[10] = stored five (5) days, about 60° C., about 75% relative humidity

## Cc1ccsc1C(=CCCN1CCC[C@@H](C(=O)O)C1)c1sccc1C.Cl [Form Z, tiagabine hydrochloride]
[1]; heated at 90-95° C. for about 10 minutes, listed as From Z, hydrochloride
  Form indicated by XRPD analysis after heating: a mixture of Forms B and Q

## Cc1ccsc1C(=CCCN1CCC[C@@H](C(=O)O)C1)c1sccc1C.Cl [Form I, tiagabine hydrochloride]
[2]
  Form converted to during storage: a mixture of tiagabine hydrochloride Forms S and B
[2]; [4]
  Form indicated by XRPD analysis after storage: a mixture of tiagabine HCl Forms S and B; also recorded: a mixture of Form S+Form B

## Cc1ccsc1C(=CCCN1CCC[C@@H](C(=O)O)C1)c1sccc1C.Cl [Form AA, tiagabine hydrochloride]
[3]; [5]
  Form indicated by XRPD analysis after drying: Form AA

## Cc1ccsc1C(=CCCN1CCC[C@@H](C(=O)O)C1)c1sccc1C.Cl [Form C, tiagabine hydrochloride]
[2]; ambient temperature and humidity
  Time stable when stored: 2 months
[2]; [4]
  Form indicated by XRPD analysis after storage: tiagabine HCl Form C

## Cc1ccsc1C(=CCCN1CCC[C@@H](C(=O)O)C1)c1sccc1C.Cl [Form T, tiagabine hydrochloride]
[3]; [6]
  Form indicated by XRPD analysis after drying: tiagabine HCl Form C
[1]; heated to about 115-120° C. for approximately 10 minutes
  Form indicated by XRPD analysis after heating: tiagabine HCl Form B

## Cc1ccsc1C(=CCCN1CCC[C@@H](C(=O)O)C1)c1sccc1C.Cl [Form J, tiagabine hydrochloride]
[2]
  Form converted to during storage: a mixture of tiagabine hydrochloride Forms Q and B
[2]; [4]
  Form indicated by XRPD analysis after storage: a mixture of tiagabine HCl Forms Q and B

## Cc1ccsc1C(=CCCN1CCC[C@@H](C(=O)O)C1)c1sccc1C.Cl [Form Y, tiagabine hydrochloride]
[3]; [5]
  Form indicated by XRPD analysis after drying: Form Y
[1]; heated at 100-110° C. for about 10 minutes
  Form indicated by XRPD analysis after heating: Form B containing a minor amount of Form Q

## Cc1ccsc1C(=CCCN1CCC[C@@H](C(=O)O)C1)c1sccc1C.Cl [Form P containing a minor amount of Form B] [tiagabine hydrochloride]
[3]; dried about 15 hours under vacuum at 40-95° C.
  Form indicated by XRPD analysis after drying: a mixture of tiagabine HCl Forms P and B
[3]; [6]
  Form indicated by XRPD analysis after drying: a mixture of tiagabine HCl Forms P and B

## Cc1ccsc1C(=CCCN1CCC[C@@H](C(=O)O)C1)c1sccc1C.Cl [Form D, tiagabine hydrochloride]
[3]; [5]
  Form indicated by XRPD analysis after drying: a mixture of Form D containing a minor amount of Form A
[2]
  Form converted to during storage: tiagabine hydrochloride Form B, sometimes mixed with tiagabine hydrochloride Form Q
[2]; [7]
  Form indicated by XRPD analysis after storage: a mixture of tiagabine HCl Forms B and Q
[2]; [4]
  Form indicated by XRPD analysis after storage: a mixture of tiagabine HCl Forms Q and B

## Cc1ccsc1C(=CCCN1CCC[C@@H](C(=O)O)C1)c1sccc1C.Cl [Form S mixed with Form B, tiagabine hydrochloride]
[3]; [8]
  Form indicated by XRPD analysis after drying: a mixture of tiagabine HCl Forms S and B

## Cc1ccsc1C(=CCCN1CCC[C@@H](C(=O)O)C1)c1sccc1C.Cl [Form D containing a minor amount of Form B] [tiagabine hydrochloride]
[2]; [9]
  Form indicated by XRPD analysis after storage: a mixture of tiagabine HCl Form B and a trace of Q
[2]; [10]
  Form indicated by XRPD analysis after storage: tiagabine HCl Form B and a trace of Q

## Cc1ccsc1C(=CCCN1CCC[C@@H](C(=O)O)C1)c1sccc1C.Cl [Form H, tiagabine hydrochloride]
[3]; [6]
  Form indicated by XRPD analysis after drying: Form Q
[1]; heated at 90-95° C. for about 10 minutes, hydrochloride
  Form indicated by XRPD analysis after heating: Form Q containing a minor amount of Form B

## Cc1ccsc1C(=CCCN1CCC[C@@H](C(=O)O)C1)c1sccc1C.Cl [Form P, tiagabine hydrochloride]
[2]
  Form converted to during storage: Form B
[2]; [9]
  Form indicated by XRPD analysis after storage: tiagabine HCl Form B
[2]; [10]
  Form indicated by XRPD analysis after storage: tiagabine HCl Form B

## Cc1ccsc1C(=CCCN1CCC[C@@H](C(=O)O)C1)c1sccc1C.Cl [Form P containing Form B, tiagabine hydrochloride]
[3]; [8]
  Form indicated by XRPD analysis after drying: a mixture of tiagabine Form P and B
[2]; [7]
  Form indicated by XRPD analysis after storage: a mixture of tiagabine HCl Forms P and B

## Cc1ccsc1C(=CCCN1CCC[C@@H](C(=O)O)C1)c1sccc1C.Cl [Form M, tiagabine hydrochloride]
[2]
  Form converted to during storage: a mixture of tiagabine hydrochloride Forms B and Q
[2]; [4]
  Form indicated by XRPD analysis after storage: a mixture of tiagabine HCl Forms B and Q

— patent publication US20080064727A1, “Crystalline forms of tiagabine hydrochloride” (Cephalon, Inc., priority 2006, published 2008)
